{
  "source": "ChEMBL document CHEMBL5316284",
  "about": "“Structural Determinants of Indole-2-carboxamides: Identification of Lead Acetamides with Pan Antimycobacterial Activity” (J Med Chem, 2023)",
  "type_in_all_cases": "functional",
  "key": {"[1]": {"tested_on": "Mycobacterium tuberculosis", "assay": "Antimycobacterial activity against Mycobacterium tuberculosis harbouring mmpL3 G253E mutant gene assessed as inhibition of bacterial growth by visual analysis"}, "[2]": {"tested_on": "Mycobacterium tuberculosis", "assay": "Antimycobacterial activity against Mycobacterium tuberculosis harbouring mmpL3 S288T mutant gene assessed as inhibition of bacterial growth by visual analysis"}, "[3]": {"tested_on": "Mycobacterium tuberculosis", "assay": "Antimycobacterial activity against Mycobacterium tuberculosis harbouring mmpL3 V684A mutant gene assessed as inhibition of bacterial growth by visual analysis"}, "[4]": {"tested_on": "Mycobacterium tuberculosis", "assay": "Antimycobacterial activity against Mycobacterium tuberculosis harbouring wild-type mmpL3 gene assessed as inhibition of bacterial growth by visual analysis"}, "[5]": {"tested_on": "Mycobacterium tuberculosis", "assay": "Antimycobacterial activity against Mycobacterium tuberculosis harbouring mmpL3 S591l mutant gene assessed as inhibition of bacterial growth by visual analysis"}, "[6]": {"tested_on": "Mycobacterium tuberculosis", "assay": "Antimycobacterial activity against Mycobacterium tuberculosis harbouring mmpL3 V684G mutant gene assessed as inhibition of bacterial growth by visual analysis"}, "[7]": {"tested_on": "Mycobacterium tuberculosis", "assay": "Antimycobacterial activity against Mycobacterium tuberculosis harbouring mmpL3 L567P mutant gene assessed as inhibition of bacterial growth by visual analysis"}, "[8]": {"tested_on": "Mycobacterium tuberculosis", "assay": "Antimycobacterial activity against Mycobacterium tuberculosis harbouring mmpL3 S309C mutant gene assessed as inhibition of bacterial growth by visual analysis"}, "[9]": {"tested_on": "Mycobacterium tuberculosis", "assay": "Antimycobacterial activity against Mycobacterium tuberculosis harbouring mmpL3 L189R mutant gene assessed as inhibition of bacterial growth by visual analysis"}, "[10]": {"tested_on": "Mycobacterium tuberculosis", "assay": "Antimycobacterial activity against Mycobacterium tuberculosis harbouring mmpL3 F644C mutant gene assessed as inhibition of bacterial growth by visual analysis"}},
  "data": [
    {"smiles": "O=C(CNc1cccc(OC(F)(F)F)c1)NC12CC3CC(CC(C3)C1)C2", "values": [
      {"measurement": "MIC", "setting": "[1]", "value": 4, "unit": "µg/mL"},
      {"measurement": "MIC", "setting": "[2]", "value": 8, "unit": "µg/mL"},
      {"measurement": "MIC", "setting": "[3]", "value": 1, "unit": "µg/mL"},
      {"measurement": "MIC", "setting": "[4]", "value": 0.5, "unit": "µg/mL"},
      {"measurement": "MIC", "setting": "[5]", "value": 4, "unit": "µg/mL"},
      {"measurement": "MIC", "setting": "[6]", "value": 0.5, "unit": "µg/mL"},
      {"measurement": "MIC", "setting": "[7]", "value": 2, "unit": "µg/mL"},
      {"measurement": "MIC", "setting": "[8]", "value": 4, "unit": "µg/mL"},
      {"measurement": "MIC", "setting": "[9]", "value": 2, "unit": "µg/mL"}
    ]},
    {"smiles": "C[C@@H]1[C@H]2C[C@@H](C[C@H]1NC(=O)CNc1cccc(Cl)c1)C2(C)C", "values": [
      {"measurement": "MIC", "setting": "[1]", "value": 4, "unit": "µg/mL"},
      {"measurement": "MIC", "setting": "[2]", "value": 16, "unit": "µg/mL"},
      {"measurement": "MIC", "setting": "[10]", "value": 4, "unit": "µg/mL"},
      {"measurement": "MIC", "setting": "[3]", "value": 2, "unit": "µg/mL"},
      {"measurement": "MIC", "setting": "[4]", "value": 1, "unit": "µg/mL"},
      {"measurement": "MIC", "setting": "[5]", "value": 4, "unit": "µg/mL"},
      {"measurement": "MIC", "setting": "[6]", "value": 2, "unit": "µg/mL"},
      {"measurement": "MIC", "setting": "[7]", "value": 2, "unit": "µg/mL"},
      {"measurement": "MIC", "setting": "[8]", "value": 8, "unit": "µg/mL"},
      {"measurement": "MIC", "setting": "[9]", "value": 4, "unit": "µg/mL"}
    ]},
    {"smiles": "CC[C@H]1OC(=O)[C@H](C)[C@@H](O[C@H]2C[C@@](C)(OC)[C@@H](O)[C@H](C)O2)[C@H](C)[C@@H](O[C@@H]2O[C@H](C)C[C@H](N(C)C)[C@H]2O)[C@](C)(OC)C[C@@H](C)C(=O)[C@H](C)[C@@H](O)[C@]1(C)O", "note": "[CLARITHROMYCIN]", "values": [
      {"measurement": "MIC", "setting": "[1]", "value": 0.5, "unit": "µg/mL"},
      {"measurement": "MIC", "setting": "[2]", "value": 0.5, "unit": "µg/mL"},
      {"measurement": "MIC", "setting": "[10]", "value": 0.5, "unit": "µg/mL"},
      {"measurement": "MIC", "setting": "[4]", "value": 0.5, "unit": "µg/mL"},
      {"measurement": "MIC", "setting": "[5]", "value": 0.5, "unit": "µg/mL"},
      {"measurement": "MIC", "setting": "[6]", "value": 0.5, "unit": "µg/mL"},
      {"measurement": "MIC", "setting": "[7]", "value": 0.5, "unit": "µg/mL"},
      {"measurement": "MIC", "setting": "[8]", "value": 0.5, "unit": "µg/mL"},
      {"measurement": "MIC", "setting": "[9]", "value": 0.5, "unit": "µg/mL"}
    ]}
  ]
}
